Here are results for 2 compounds from PMC8036666, “Biological and Physico-Chemical Characteristics of Arginine-Rich Peptide Gemini Surfactants with Lysine and Cystine Spacers” (International Journal of Molecular Sciences, 2021).

The series can be described thus: in vitro. The following applies: human, 25% (v/v) normal human serum. Here is the method:
Serum stability of peptides B7 and C7 was tested in normal human serum (Sigma-Aldrich, Steinheim, Germany) according to the modified Jenssen and Aspmo protocol. Briefly, compounds were incubated in 25% (v/v) human serum solution in RPMI-1640 (Sigma-Aldrich, Steinheim, Germany) at 37 ± 0.1 °C. The final compound concentration was 50 µg/mL. Time intervals were 0, 1, 2, 3, 4, and 5 h. To precipitate serum proteins, 100 µL of solution was added to 200 µL of 96% ethanol (Pure P.A., POCH, Avantor Performance Materials S.A, Gliwice, Poland) and incubated at 4 °C before centrifugation (4 °C, 18,000× g, 2 min; Sorvall ST 16R Centrifuge, Thermo Scientific, Osterode am Harz, Germany). Subsequently, 200 µL of supernatant was transferred to glass vials (1.5 mL, Anchem, Poland), and the liquid was evaporated under nitrogen at 37 °C (approximately 30 min). The vials were lyophilized for 24 h to remove traces of solvents.
The influence of serum matrix on calibration curves was eliminated by the preparation of a series of vials with residual substances from serum. Briefly, ethanol was added to serum solution to precipitate proteins. Subsequently, the precipitate was centrifuged, and the supernatant was collected and evaporated to dryness as described above. Standards of the analyzed compounds were prepared in demineralized water in concentration ranging from 1 to 15 ppm. Next, 333 µL of solutions were moved to vials containing residual matrix substances (blank, without surfactant). Similarly, samples obtained after serum stability experiments were dissolved in 333 µL of demineralized water and analyzed. Analyses were performed using UPLC-HRMS. The mobile phase contained deionized water (solvent A) and acetonitrile (solvent B; ACN for HPLC-gradient grade; POCH, Avantor, Gliwice, Poland) both supplemented with a 0.1% (v/v) formic acid (Sigma-Aldrich, Steinheim, Germany).
The quantification of lipopeptides was performed using an Agilent 1290 Infinity chromatograph and Agilent 6550 Quadrupole Time-of-flight (Q-TOF) high-resolution mass spectrometer (HRMS). Gradient LC analyses were conducted using a ZORBAX Eclipse Plus C18 column (Rapid Resolution HD, 2.1 × 50 mm, 1.8 µm) and mobile phases: A—water containing 0.3% of acetonitrile and B—acetonitrile, both with 0.1% (v/v) formic acid. […] The mass detector equipped with an ESI source in HRMS mode was set in scanning mode 100–1700 m/z range in positive ionization. Chromatograms for a desired m/z value were extracted, and calibration curves were prepared using Mass Hunter software. All standards and serum samples were subjected to LC-MS analysis, and all analyses were performed in triplicate. Calibration curves were prepared for chromatograms extracted for m/z values corresponding to mono-, di-, tri- and tetra-charged ions. For analysis of peptide C7, a pseudomolecular ion [M+H]^+ (m/z 1227.8017) was selected, while for the other peptide B7, triple charged ion [M+3H]^3+ (m/z 378.9606).

By fraction remaining is commonly meant what is left of the initial amount, in per cent. `CCCCCCC(CCCC)C(=O)N[C@@H](CCCNC(=N)N)C(=O)N[C@@H](CCCNC(=N)N)C(=O)N[C@@H](CSSC[C@H](NC(=O)[C@H](CCCNC(=N)N)NC(=O)[C@H](CCCNC(=N)N)NC(=O)C(CCCC)CCCCCC)C(N)=O)C(N)=O` (stereo partly drawn) [Compound C7] returned an amount remaining at 0 h, 50 µg/mL of 100 ± 1.1%; a share remaining at 1 h, 50 µg/mL of 92.2 ± 2.1%; a fraction remaining at 2 h, 50 µg/mL of 82.5 ± 1.3%; a share remaining at 3 h, 50 µg/mL of 79.2 ± 1.6%. Moreover, the share remaining at 4 h, 50 µg/mL turned out to be 72.8 ± 3% and the amount remaining at 5 h, 50 µg/mL worked out at 59.4 ± 1%.
Regarding `CCCCCCC(CCCC)C(=O)N[C@@H](CCCNC(=N)N)C(=O)N[C@@H](CCCNC(=N)N)C(=O)NCCCC[C@H](NC(=O)[C@H](CCCNC(=N)N)NC(=O)[C@H](CCCNC(=N)N)NC(=O)C(CCCC)CCCCCC)C(N)=O` (stereo partly drawn) [Compound B7], the fraction remaining at 0 h, 50 µg/mL worked out at 100 ± 2.4%; the amount remaining at 1 h, 50 µg/mL amounted to 94.3 ± 1.8%; the share remaining at 2 h, 50 µg/mL was 87.3 ± 1.7%; the share remaining at 3 h, 50 µg/mL was 83.1 ± 1.6%. The fraction remaining at 4 h, 50 µg/mL is 80.1 ± 1.2% and the fraction remaining at 5 h, 50 µg/mL amounted to 63.2 ± 2.9%.
